Tests used:
sigma-1 receptor = sigma-1 receptor (Homo sapiens, UniProt Q99720); test: sigma 1 binding assay; details: ratio of sigma-1 K i to H3R K i
[1] = In vitro stability in liver microsomes, NHPs; type: in vitro ADME, nonhuman primates (NHPs); details: 90 min
Experimental: (§1) To assess the stability of [^18F]3, in vitro radioactivity analyses were conducted following 30-, 60- and 90 min coincubation of the radioligand in the serum and liver microsomes from mice, nonhuman primates (NHPs), and humans (Figure ).
(§2) Serum from mice, NHPs, and humans were warmed to room temperature, 15 MBq of [^18F]3 was added to 0.4 mL of each species’ serum. The mixtures were incubated at 37 °C and 0.1 mL of mixture was transferred into 0.2 mL cold acetonitrile at 30, 60, and 90 min. The samples were vortexed for 15 s and then centrifuged at 10,000g for 5 min. The supernatant was analyzed using analytical HPLC (Agilent 1100 series HPLC system on Phenomenex Luna C-18 column (4.6 × 150 mm), mobile phase 30% CH3CN/0.1% TFA in water, flow:1 mL/min). For microsomes studies, a mixture of microsomes (0.5 mg/mL), [^18F]3 (15 MBq), 0.35 mL of PBS, 0.05 mL of NADPH regenerating system A, and 0.01 mL of NADPH regenerating system B were incubated at 37 °C. The subsequent steps followed the same procedure as described above.

[2] = In vitro stability in serum, mice; type: in vitro ADME; details: 37 °C, 30, 60 and 90 min
Experimental: as §1, §2

[3] = In vitro stability in serum, NHPs; type: in vitro ADME, nonhuman primates (NHPs); details: NHP serum, 37 °C, 30, 60 and 90 min
Experimental: as §1, §2

[4] = In vitro stability in serum, humans; type: in vitro ADME; details: human serum, 37 °C, 30, 60 and 90 min
Experimental: as §1, §2

H3R = target: T1, H3R (Mus musculus, UniProt P58406); test: Dynamic PET imaging in CD1 mice, baseline and H3R antagonist blocking; type: in vivo; details: for V T, cerebellum / V T, cortex / V T, hippocampus / V T, striatum / V T, thalamus / V T, whole brain: Logan analysis, IDIF
T1 construct: dynamic PET imaging studies were conducted in CD1 mice; from tissue; host or cells: brain of living CD1 mice
T1 sequence (P58406 whole entry): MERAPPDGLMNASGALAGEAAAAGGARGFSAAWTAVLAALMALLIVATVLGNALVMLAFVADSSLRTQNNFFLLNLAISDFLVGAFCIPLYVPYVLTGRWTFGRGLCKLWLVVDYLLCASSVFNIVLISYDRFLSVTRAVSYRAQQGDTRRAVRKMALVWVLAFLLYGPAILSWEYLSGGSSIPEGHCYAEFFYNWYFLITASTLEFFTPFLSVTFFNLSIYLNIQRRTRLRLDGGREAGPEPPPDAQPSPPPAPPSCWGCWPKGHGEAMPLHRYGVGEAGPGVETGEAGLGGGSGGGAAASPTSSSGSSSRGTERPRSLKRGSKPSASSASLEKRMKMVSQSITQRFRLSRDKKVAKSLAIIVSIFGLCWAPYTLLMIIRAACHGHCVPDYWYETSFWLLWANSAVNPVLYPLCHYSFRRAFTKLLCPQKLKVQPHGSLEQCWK
Experimental: To elucidate the in vivo brain uptake of [^18F]3 and [^18F]4, dynamic PET imaging studies were conducted in CD1 mice (an outbred strain of immunocompetent mice commonly used for pharmacokinetic and biodistribution studies) for 60 min. The results, which include summed PET images (0–60 min), whole-brain time-activity curves (TACs), and area under the curve (AUC) for both radioligands, are depicted in Figures and . At baseline, [^18F]3 rapidly crossed the BBB following intravenous injection, reaching peak whole-brain uptake with a standardized uptake value (SUV) value of 2.4 at 2.3 min. This was followed by a gradual washout and reached a SUV of 1.87 by 60 min. To evaluate the binding characteristics of [^18F]3, elective H3R antagonists with distinct structural scaffolds, GSK189254, enerisant, and cipralisant, were used as blocking agents. […] Quantification of specific tracer binding was performed using volume of distribution (V T) values, derived from compartmental modeling and an image-derived input function (IDIF). […] While these findings support the utility of [^18F]3 for in vivo studies, we acknowledge the inherent limitations of IDIF, including the lack of metabolite correction and potential inaccuracies in capturing early phase kinetics.
PET imaging was conducted following previously reported methods. CD1 mice (5–6 weeks) were anesthetized with 1.5% (v/v) isoflurane during the scan. A dose of 3.0 MBq of [^18F]3 or [^18F]4 was intravenously injected into the tail vein, and a dynamic scan was acquiring using a PET scanner (MOLECUBES, beta-cube) for 60 min. In the blocking studies, GSK189254 (3 mg/kg) in 0.1 mL of saline containing 5% ethanol and 5% Tween-80 was preinjected for 10 min prior to the injection of PET radioligands. The results were reconstructed and analyzed by PMOD 4.3 software.
Quantification of specific tracer binding was performed using volume of distribution (VT) values, derived from compartmental modeling and an image-derived input […]
significant reduction in H3R-rich brain regions such as the cortex and striatum under blocking conditions with GSK189254, enerisant, and cipralisant, confirming the specificity of [18F]3 binding (Table S1).
Table S1. Estimation of V T values by Logan analysis in mice with [ 18F]3 at baseline, GSK189254-blocking (3 mg/kg), enerisant-blocking (3 mg/kg), and cipralisant-blocking (3 mg/kg) conditions.
Group Baseline GSK189254 Enerisant Cipralisant blocking blocking blocking

[5] = Ex vivo whole-body biodistribution; type: in vivo; details: 5 min postadministration, CD1 mice
Experimental: To further investigate the whole-body distribution of [^18F]3, ex vivo biodistribution experiments were conducted in CD1 mice at 5-, 15-, 30-, and 60 min postadministration. […] Initially, high levels of radioactivity were detected in the heart, lung, and kidney, with subsequent clearance observed in these organs over time. […] Minimal radioactivity was detected in the blood and bone at all time points throughout the study. […] These findings indicate that our tracer is relatively stable against in vivo defluorination.
A dose of 1.0 MBq of [^18F]3 in 0.1 mL saline was intravenously injected into the tail vein of CD1 mice (5–6 weeks). At various time-points (5-, 15-, 30- and 60 min) postinjection, the mice were sacrificed, and their organs were collected and weighed. The radioactivity of each organ was measured using a γ counter (PerkinElmer Wizard).

[6] = mice pretreated with GSK189254 (3 mg/kg)

Sequence of sigma-1 receptor (Q99720 whole entry, species assumed): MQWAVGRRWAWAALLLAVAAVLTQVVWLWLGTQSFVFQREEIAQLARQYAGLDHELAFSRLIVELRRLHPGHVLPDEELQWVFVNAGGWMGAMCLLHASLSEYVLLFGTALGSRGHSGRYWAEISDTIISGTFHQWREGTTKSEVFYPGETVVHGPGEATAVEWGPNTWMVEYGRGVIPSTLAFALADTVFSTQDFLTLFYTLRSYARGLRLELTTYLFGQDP

## O=C([C@H]1C[C@@H]1c1ccc([18F])cc1)N1CCN(C2CCCC2)CC1 [[^18F]3]
sigma-1 receptor
  selectivity of H3R over sigma-1: 69 fold
[1]
  parent fraction in liver microsomes: 85%
[2]
  parent compound remaining intact in serum: over 95%
[3]
  parent compound remaining intact in serum: over 95%
[4]
  parent compound remaining intact in serum: over 95%
H3R; GSK189254 3 mg/kg, 0–60 min
  whole-brain signal reduction based on AUC, GSK189254 blocking: 32.5%
H3R; GSK189254 blocking 3 mg/kg
  V T, cerebellum: 3.85 ± 0.61
  V T, cortex: 2.17 ± 0.08
  V T, hippocampus: 3.77 ± 0.47
  V T, striatum: 2.91 ± 0.05
  V T, thalamus: 3.90 ± 0.90
  V T, whole brain: 3.40 ± 0.44
H3R; baseline
  V T, cerebellum: 5.59 ± 0.37
  V T, cortex: 4.82 ± 0.09
  V T, hippocampus: 5.80 ± 0.05
  V T, striatum: 5.64 ± 0.02
  V T, thalamus: 6.71 ± 0.05
  V T, whole brain: 5.29 ± 0.52
H3R; cipralisant blocking 3 mg/kg
  V T, cerebellum: 2.94 ± 0.33
  V T, cortex: 2.38 ± 0.34
  V T, hippocampus: 2.61 ± 0.32
  V T, striatum: 2.67 ± 0.33
  V T, thalamus: 2.78 ± 0.40
  V T, whole brain: 2.61 ± 0.30
H3R; enerisant blocking 3 mg/kg
  V T, cerebellum: 3.73 ± 0.16
  V T, cortex: 3.18 ± 0.12
  V T, hippocampus: 3.84 ± 0.19
  V T, striatum: 3.48 ± 0.27
  V T, thalamus: 4.11 ± 0.26
  V T, whole brain: 3.58 ± 0.18
H3R; baseline, CD1 mice
  time of peak whole-brain uptake: 2.3 min
  whole-brain uptake at 60 min: 1.87 SUV
H3R; baseline, intravenous injection, CD1 mice
  peak whole-brain uptake: 2.4 SUV
H3R; cipralisant 3 mg/kg, 0–60 min
  whole-brain AUC reduction, cipralisant blocking: 38.4%
H3R; enerisant 3 mg/kg, 0–60 min
  whole-brain AUC reduction, enerisant blocking: 35.6%
H3R; [6]
  brain radioactivity at 60 min: 1.27 SUV
  peak brain radioactivity: 1.98 SUV
  time of peak brain radioactivity: 1.9 min
[5]
  brain uptake: 10.9 %ID/g
